Measurements: patent US8114871B2, “3-amido-pyrrolo[3,4-C]pyrazole-5(1H,4H,6H) carbaldehyde derivatives” (Pfizer Inc., priority 2007, dated 2012)
pKi: −log10 of the molar value.

Biological target: Protein Kinase C beta 2 (PKCβII) (Homo sapiens, UniProt P05771)
Assay: PKCβII coupled PK/LDH spectrophotometric kinase assay (decrease of NADH absorbance at 340 nm)
Type: biochemical
Conditions: apparent Ki, Morrison fit, 0.1 mM ATP, 30° C., pH 7.4; read-out: PKCb Ki
Protocol: This transfer is coupled to the oxidation of p-NADH through the activities of Pyruvate Kinase (PK) and Lactate Dehydrogenase (LDH).
A typical assay was carried out on a 96-well, clear microtiter plate in a Molecular Devices spectrophotometer for 20 minutes at 30° C. in 0.1 mL of assay buffer containing 50 mM HEPES, pH 7.4, 5 nM PKC, 23 units of pyruvate kinase, 33 units of lactate dehydrogenase, 0.15 mM peptide, 0.1 mM ATP, 1 mM DTT, 4 mM PEP, 8 mM MgCl2, 0.3 mM NADH, 60 mM CaCl2, 10 mg/mL PS, 50 ng/mL PMA, 7.5% DMSO and from about 10,000 nM to 0.169 nM compound inhibitor. Stock solutions of 3-sn-phosphatidyl-L-serine (PS) and phorbol-12-myristate-13-acetate (PMA) were sonicated for 30 seconds just prior to addition to assay buffer and assays were initiated by the addition of 100 μM ATP.
Enzyme turnover values (kcat) were calculated according to […], where [E] is the total enzyme concentration. […] Morrison, J. F., Biochim. Biophys Acta 185: 269-286 (1969).

Protein Kinase C beta 2 (PKCβII), sequence (P05771 1-673 isoform P05771-2): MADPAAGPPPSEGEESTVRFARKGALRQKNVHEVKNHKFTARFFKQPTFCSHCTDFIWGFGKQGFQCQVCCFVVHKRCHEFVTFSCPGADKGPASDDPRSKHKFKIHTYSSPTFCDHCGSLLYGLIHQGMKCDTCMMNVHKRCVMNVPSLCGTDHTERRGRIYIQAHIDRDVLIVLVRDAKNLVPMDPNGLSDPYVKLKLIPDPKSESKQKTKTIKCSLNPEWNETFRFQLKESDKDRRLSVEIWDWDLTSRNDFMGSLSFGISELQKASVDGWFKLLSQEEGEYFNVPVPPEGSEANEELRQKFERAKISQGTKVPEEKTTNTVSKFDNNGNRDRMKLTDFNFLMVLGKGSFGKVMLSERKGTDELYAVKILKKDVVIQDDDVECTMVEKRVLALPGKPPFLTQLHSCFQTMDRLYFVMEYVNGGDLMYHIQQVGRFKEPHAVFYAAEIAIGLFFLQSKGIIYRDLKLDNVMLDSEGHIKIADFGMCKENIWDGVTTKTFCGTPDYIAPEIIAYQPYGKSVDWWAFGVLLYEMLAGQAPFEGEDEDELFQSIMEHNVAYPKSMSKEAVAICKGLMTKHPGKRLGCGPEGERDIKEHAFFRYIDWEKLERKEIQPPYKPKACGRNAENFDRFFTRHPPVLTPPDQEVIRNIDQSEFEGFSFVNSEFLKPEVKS

**Q.** `CCOc1cccc(C(=O)Nc2n[nH]c3c2CN(C(=O)N2C[C@@H]4CCCN4C[C@@H]2C)C3(C)C)c1` [Example E5, N-(6,6-dimethyl-5-((3S,8aS)-3-methyl-octahydropyrrolo[1,2-a]pyrazine-2-carbonyl)-1,4,5,6-tetrahydropyrrolo[3,4-c]pyrazol-3-yl)-3-ethoxybenzamide] was tested. Which pKi did it give?
**A.** The pKi was 7.43.
